From patent US7176219B2, “Salts of quinuclidine derivative” (priority 2005, dated 2007)

Assays:
muscarinic M3 receptors [1] = molecular target: muscarinic M3 receptors (Homo sapiens, UniProt P20309); conditions: made public in Patent document 1 (EP 0 801 067); cited from earlier work
[2] = test system: carbachol-evoked bladder contraction; assay: Inhibitory effects on carbachol-evoked bladder contraction in anesthetized mice; format: in vivo; conditions: anesthetized female mice, i.v., carbachol 10 μg/kg, intravesical pressure
Description: The method for determination of inhibitory effects of test compounds on bladder contraction is described as follows.
Female mice, weighing 30 to 35 g, were anesthetized with a sub-lethal dose (75 mg/kg, i.v.) of sodium pentobarbital and placed supine on a heating pad to maintain the body temperature. A polyethylene catheter (PE10) was cannulated to the bladder via the urethra and secured by purse-string suture at the external urethral opening. Another catheter was inserted into the femoral vein for injections of drug solutions at a […]. The bladder catheter was connected to a pressure transducer through a three-way stopcock valve. The bladder was emptied by drainage of urine through the catheter, and then distended with about 100 μL of physiological saline, and the intravesical pressure was measured.
After intravesical pressure stabilization, the muscarinic agonist carbachol (10 μg/kg) was administered repeatedly with an interval of 15 minutes or longer. By this means, bladder contractions occurred in a reproducible manner over 2 hours without deterioration of physical conditions. After three responses to carbachol were obtained, a test compound injection was followed by carbachol administration 10 minutes later and this procedure was repeated with increasing doses of the test compound. In four or five mice per test compound, the percent inhibition of means of prior drug responses was obtained and the dose of test compound required for 50% inhibition (ID50) was estimated by the linear regression analysis. Mice showing rhythmic bladder constriction were not used for the data analysis.

[3] = Evaluation of stability (1): forced degradation test, impurities by LC; conditions: for Change from Impurity Amt. before Storage (%), Condition 3 / Change from Impurity Amt. before Storage (%), Condition 2: 25° C., 5 days; for Change from Impurity Amt. before Storage (%), Condition 3: NUV (near ultraviolet ray) irradiated; for Change from Impurity Amt. before Storage (%), Condition 3 / Change from Impurity Amt. before Storage (%), Condition 1: tightly closed; for Change from Impurity Amt. before Storage (%), Condition 2: relative humidity 93%, open; for Change from Impurity Amt. before Storage (%), Condition 1: 120° C., 24 hours
Description: A sample after storage was dissolved in 1 mL of MeOH and used as a sample solution. The sample solution was diluted 100 times with MeOH and used as a standard solution. Impurities contained in the sample solution was quantitatively analyzed using the standard solution. In this determination, the apparatus including data processing was operated according to the method and procedure directed in each device. (Apparatus: LC-MSD 1100 series, made by Agilent)

muscarinic M3 receptors [4] = molecular target: T1, muscarinic M3 receptors (Cavia porcellus, UniProt H0W1Z3); assay: Functional affinity estimate for muscarinic M3 receptors in bladders (carbachol-induced intracellular Ca2+ change in bladder smooth muscle cells); format: cell-based, guinea pig
T1 construct: Smooth muscle cells were isolated from guinea pig bladders; from tissue; host or cells: smooth muscle cells freshly isolated from guinea pig bladder
T1 sequence (H0W1Z3 1-590): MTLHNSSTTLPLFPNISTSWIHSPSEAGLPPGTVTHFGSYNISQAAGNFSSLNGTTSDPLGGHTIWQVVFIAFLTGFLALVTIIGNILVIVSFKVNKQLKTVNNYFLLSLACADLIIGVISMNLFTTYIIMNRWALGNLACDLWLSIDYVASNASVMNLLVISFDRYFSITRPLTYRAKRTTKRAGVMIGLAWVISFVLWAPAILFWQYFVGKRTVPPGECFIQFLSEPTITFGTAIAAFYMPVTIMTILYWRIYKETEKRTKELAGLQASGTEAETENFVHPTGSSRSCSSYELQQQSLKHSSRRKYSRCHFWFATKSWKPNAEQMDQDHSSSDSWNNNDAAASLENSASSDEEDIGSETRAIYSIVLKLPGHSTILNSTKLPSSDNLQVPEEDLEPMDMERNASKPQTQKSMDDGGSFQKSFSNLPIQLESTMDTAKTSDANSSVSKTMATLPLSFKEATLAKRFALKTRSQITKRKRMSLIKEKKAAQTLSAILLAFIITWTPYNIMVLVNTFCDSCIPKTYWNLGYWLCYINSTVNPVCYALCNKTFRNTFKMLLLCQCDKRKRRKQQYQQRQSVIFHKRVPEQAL
Description: Below, the method is described in brief.
Smooth muscle cells were isolated from guinea pig bladders from which the […] had been removed, loaded with a calcium-sensitive fluorescent dye Fura2 and suspended in phenol red-free Hanks' buffer solution supplemented with 20 mM HEPES (pH 7.4) and 0.1% bovine serum albumin. An aliquot of cell suspension (490 μL) was continuously stirred, kept at 28° C. and monitored for the ratio of fluorescence (500 nm) at 340 nm excitation to that at 380 nm excitation. To each aliquot, 5 μL of test compound and carbachol solutions were serially added with a 2 minute interval, and the peak increase in the ratio over the level just before stimulation was used in data analysis.

[5] = Evaluation of stability (2): stress testing, impurities by LC, UV at 210 nm; format: physicochemical
Description: A sample (about 5 mg) was weighed in a glass mess-flask of 10 mL and applied to a stress testing in the following storage conditions. • Condition 1: 5° C.—shading—tightly closed • Condition 2: 40° C.—relative humidity 75%—open • Condition 3: 60° C.—shading—tightly closed • Condition 4: 80° C.—shading—tightly closed • Condition 5: 25° C.—D65 (1000 lux)—tightly closed
Chemical stability: After storage, MeOH was placed in the mess-flask containing the sample up to the level of the marked line, and the resulting solution was used as a sample solution. The sample solution was diluted 100 times with MeOH to prepare a standard solution, which was used in determination of impurities contained in the sample solution. Detection of the impurities was performed by means of UV at 210 nm. […] (Apparatus: LC-MSD 1100 series, made by Agilent)

[6] = Evaluation of hygroscopicity (dynamic steam adsorption, weight change); format: physicochemical; conditions: for Weight Change (%): within the range 5–95% relative humidity; for Deliquescence during water absorption measurement: 5–95% relative humidity
Description: A sample (about 5 mg) was placed in a purpose-made quartz holder, and the sample weight at the respective humidity was continuously measured and recorded in the following conditions. The apparatus including data processing was operated according to the method and procedure directed in each device. (Apparatus: dynamic steam adsorption measuring apparatus DVS Advantage, made by SMS)

[7] = Hygroscopicity and long-term storage of the known hydrochloride (disclosure section); format: physicochemical
[8] = Condition 1: 5° C., shading, tightly closed, 1 month
[9] = Condition 1: 5° C., shading, tightly closed, 2 months
[10] = Condition 1: 5° C., shading, tightly closed, 2 weeks
[11] = Condition 2: 40° C., relative humidity 75%, open, 1 month
[12] = Condition 2: 40° C., relative humidity 75%, open, 2 months
[13] = Condition 2: 40° C., relative humidity 75%, open, 2 weeks
[14] = Condition 3: 60° C., shading, tightly closed, 1 month
[15] = Condition 3: 60° C., shading, tightly closed, 2 months
[16] = Condition 3: 60° C., shading, tightly closed, 2 weeks
[17] = Condition 4: 80° C., shading, tightly closed, 1 month
[18] = Condition 4: 80° C., shading, tightly closed, 2 months
[19] = Condition 4: 80° C., shading, tightly closed, 2 weeks
[20] = Condition 5: 25° C., D65 (1000 lux), tightly closed, 1 month
[21] = Condition 5: 25° C., D65 (1000 lux), tightly closed, 2 months
[22] = Condition 5: 25° C., D65 (1000 lux), tightly closed, 2 weeks
[23] = 25° C., listed as Compound A hydrochloride, hydrochloride

Sequence of muscarinic M3 receptors (Homo sapiens, UniProt P20309) (P20309 whole entry): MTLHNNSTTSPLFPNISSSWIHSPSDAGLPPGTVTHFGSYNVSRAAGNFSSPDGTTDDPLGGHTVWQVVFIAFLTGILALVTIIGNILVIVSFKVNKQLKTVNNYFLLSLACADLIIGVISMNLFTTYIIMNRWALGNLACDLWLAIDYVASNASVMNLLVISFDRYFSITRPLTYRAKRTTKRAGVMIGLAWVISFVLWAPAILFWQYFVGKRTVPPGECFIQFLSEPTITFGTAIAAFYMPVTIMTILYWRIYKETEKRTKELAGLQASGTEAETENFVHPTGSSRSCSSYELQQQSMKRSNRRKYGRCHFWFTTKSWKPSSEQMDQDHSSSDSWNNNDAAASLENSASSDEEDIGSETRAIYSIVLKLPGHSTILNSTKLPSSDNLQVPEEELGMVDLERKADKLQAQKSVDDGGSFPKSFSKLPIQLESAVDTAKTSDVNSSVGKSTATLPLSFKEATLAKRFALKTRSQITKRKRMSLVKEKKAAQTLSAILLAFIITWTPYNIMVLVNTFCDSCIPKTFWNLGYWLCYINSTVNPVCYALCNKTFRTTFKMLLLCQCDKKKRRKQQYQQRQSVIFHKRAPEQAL

Structure (SMILES)	Change from Impurity Amt. before Storage (%), Condition 3 [3] [%]	Change from Impurity Amt. before Storage (%), Condition 2 [3] [%]	Change from Impurity Amt. before Storage (%), Condition 1 [3] [%]	Impurities before Storage (%) [3] [%]	Impurities (%) [5, 8] [%]	Impurities (%) [5, 9] [%]	Impurities (%) [5, 10] [%]	Impurities (%) [5, 11] [%]	Impurities (%) [5, 12] [%]	Impurities (%) [5, 13] [%]	Impurities (%) [5, 14] [%]	Impurities (%) [5, 15] [%]	Impurities (%) [5, 16] [%]	Impurities (%) [5, 17] [%]	Impurities (%) [5, 18] [%]	Impurities (%) [5, 19] [%]	Impurities (%) [5, 20] [%]	Impurities (%) [5, 21] [%]	Impurities (%) [5, 22] [%]	further results
O=C(O[C@H]1CN2CCC1CC2)N1CCc2ccccc2[C@H]1c1ccccc1 [Compound A, (−)-(3R)-quinuclidin-3-yl(1R)-1-phenyl-1,2,3,4-tetrahydroisoquinoline-2-carboxylate]	–	–	–	–	–	–	–	–	–	–	–	–	–	–	–	–	–	–	–	Affinity and selectivity for muscarinic M3 receptors (muscarinic M3 receptors [1]): displays an affinity and selectivity for muscarinic M3 receptors
O=C(O[C@H]1CN2CCC1CC2)N1CCc2ccccc2[C@H]1c1ccccc1 [Example 1, (−)-(3R)-quinuclidin-3-yl(1R)-1-phenyl-1,2,3,4-tetrahydroisoquinoline-2-carboxylate (−)-(2S,3S)-tartrate]	−0.3	−0.1	0.2	1.5	0.00	0.00	0.00	0.00	0.00	0.00	0.00	0.00	0.00	0.00	0.00	0.00	0.00	0.00	0.00	ID50 (dose required for 50% inhibition of bladder contraction) [2]: 0.079 mg/kg; IC50 (muscarinic M3 receptors [4]; IC50 (ng/mL), inhibition of carbachol-induced Ca2+ increase, guinea pig bladder smooth muscle cells, Fura2): 6.62 nM; Ki (muscarinic M3 receptors [4]; Ki (nM), IC50 converted by Cheng-Prusoff equation based on EC50 of carbachol): 0.68 ± 0.21 nM; Weight Change (%) ([6]; 25° C.): <1%
Cl.O=C(O[C@H]1CN2CCC1CC2)N1CCc2ccccc2[C@@H]1c1ccccc1 [Reference Example 2, Compound A hydrochloride, reference compound]	2.0	3.8	0.2	0.1	0.21	0.18	0.25	8.19	9.20	8.72	0.22	0.24	0.34	0.39	0.47	0.43	2.38	3.68	1.73	Stability to humidity ([3]; Condition 2 in Test Example 2 and Condition 2 in Test Example 3): not so stable to humidity; Stability to light ([3]; Condition 3 in Test Example 2 and Condition 5 in Test Example 3): not so stable; Increase of impurities during storage ([3]; Table 2 and Table 3): impurities increased during storage; Impurities during long-term storage ([7]; long-term storage): increase of impurities during long-term storage; Hygroscopicity in a conventional environment ([7]; relative humidity of 70% (room temperature)): so hygroscopic as to deliquesce; Deliquescence during water absorption measurement ([6]; 25° C., hydrochloride): deliquescent; Deliquescence during water absorption measurement [6, 23]: accompanied by deliquescence; Relative humidity at which rapid moisture uptake began ([6]; 25° C., FIG. 1): about 65 % relative humidity; Weight Change (%) ([6]; 25° C., hydrochloride): > 35%; Weight Change (%) [6, 23]: exceeded 35%; Weight gain by absorption of moisture ([6]; at 75% or more relative humidity): ≥ 15%
